Eleven molecules from US20240400553A1, “AMINE BASED MATRIPTASE 2 INHIBITORS AND USES THEREOF” (Disc Medicine, Inc., priority 2023, published 2024) can be followed below.

In one test the target is T1, Human Recombinant Matriptase 2 (Homo sapiens, UniProt Q8IU80).
T1 construct: made in house
T1 sequence (Q8IU80 1-811): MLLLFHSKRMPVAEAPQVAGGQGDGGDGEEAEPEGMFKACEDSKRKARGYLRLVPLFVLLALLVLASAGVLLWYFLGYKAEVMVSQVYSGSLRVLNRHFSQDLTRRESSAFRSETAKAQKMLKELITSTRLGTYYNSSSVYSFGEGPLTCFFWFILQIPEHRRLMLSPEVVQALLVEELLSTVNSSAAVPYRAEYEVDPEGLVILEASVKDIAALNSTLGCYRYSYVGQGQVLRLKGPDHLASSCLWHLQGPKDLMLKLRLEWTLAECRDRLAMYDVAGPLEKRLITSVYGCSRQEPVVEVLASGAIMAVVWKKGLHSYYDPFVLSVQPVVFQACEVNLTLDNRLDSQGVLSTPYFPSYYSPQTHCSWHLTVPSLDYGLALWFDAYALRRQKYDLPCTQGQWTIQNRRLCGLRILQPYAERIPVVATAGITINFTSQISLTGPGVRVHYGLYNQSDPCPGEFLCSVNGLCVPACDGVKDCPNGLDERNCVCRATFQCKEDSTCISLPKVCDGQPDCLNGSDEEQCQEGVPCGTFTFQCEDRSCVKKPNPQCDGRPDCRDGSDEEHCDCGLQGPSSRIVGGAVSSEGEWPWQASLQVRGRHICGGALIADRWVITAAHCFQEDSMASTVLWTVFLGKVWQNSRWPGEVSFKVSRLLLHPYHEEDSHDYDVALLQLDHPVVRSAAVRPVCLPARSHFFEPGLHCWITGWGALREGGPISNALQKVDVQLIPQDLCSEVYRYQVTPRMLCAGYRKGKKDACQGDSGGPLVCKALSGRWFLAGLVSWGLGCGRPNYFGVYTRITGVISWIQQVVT
Put plainly: Matriptase 2 inhibition, fluorescence based assay (Method I). It counts as biochemical. Particulars: Table A; Ki of Matriptase-2; read-out: Mat-2 Ki. A digest of the protocol: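 Fluorogenic readout (Ex 360/Em 480 nm) taken 60 min after adding 62 μM Boc-Gln-Ala-Arg-AMC, following 30-min enzyme–compound preincubation at 25 °C. Conditions: 3.5 nM in-house enzyme, pH 7.5 Tris/NaCl/gelatin buffer, 1% DMSO; percent inhibition versus concentration fitted by variable-slope sigmoidal regression.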
The Ki is a dissociation constant, usually derived from enzyme kinetics or from competition with a known ligand. On to `CN1CCC(COC(=O)c2cc3ccc(CN)nc3n2Cc2cc(NS(=O)(=O)Cc3cccs3)cc3ccccc23)CC1` [Compound 146, (1-methylpiperidin-4-yl)-methyl 6-(aminometh-yl)-1-({3-[(thiophen-2-yl)methanesulfonamido]-naphthalen-1-yl}methyl)-1H-pyrrolo[2,3-b]pyr-idine-2-carboxylate], for which the Ki is no more than 100 nM. On the same count and under the same terms, with `CN1CC[C@H](COC(=O)c2cc3ccc(CN)nc3n2Cc2cc(NS(=O)(=O)Cc3ccccc3)cc3ccccc23)CC1=O` (racemic) [Compound 30, rac-[(4R)-1-methyl-2-oxopiperidin-4-yl]meth-yl 6-(aminomethyl)-1-{[3-(phenylmethane-sulfonamido)naphthalen-1-yl]methyl}-1H-pyr-rolo[2,3-b]pyridine-2-carboxylate] the figure was no more than 100 nM; with `NCc1ccc2cc(C(=O)OC[C@H]3CCCCN3)n(Cc3cc(NS(=O)(=O)Cc4ccccc4)cc4ccccc34)c2n1` [Compound 72, [(2R)-piperidin-2-yl]-methyl 6-(aminomethyl)-1-{[3-(phenylmethane-sulfonamido)naphthalen-1-yl]methyl}-1H-pyr-rolo[2,3-b]pyridine-2-carboxylate], no more than 100 nM. On the same count and under the same terms, under `CC(C)(C)n1cncc1COC(=O)c1cc2ccc(CN)nc2n1Cc1cc(NS(=O)(=O)Cc2ccsc2)cc2ccccc12` [Compound 159, (1-tert-butyl-1H-imid-azol-5-yl)methyl 6-(aminomethyl)-1-({3-[(thiophen-3-yl)methane-sulfonamido]naphthalen-1-yl}methyl)-1H-pyr-rolo[2,3-b]pyridine-2-carboxylate] stands no more than 100 nM; under `CC(=O)N(C)CCOC(=O)c1cc2ccc(CN)nc2n1Cc1cc(NS(=O)(=O)Cc2c(C)cccc2C)cc2ccccc12` [Compound 197, 2-(N-methylacetamido)-ethyl 6-(aminomethyl)-1-({3-[(2,6-dimethylphen-yl)methanesulfonamido]-naphthalen-1-yl}methyl)-1H-pyrrolo[2,3-b]pyr-idine-2-carboxylate], no more than 100 nM. On the same count and under the same terms, under `CNCCOC(=O)c1cc2ccc(CN)nc2n1Cc1cc(NS(=O)(=O)Cc2ccccc2)cc2ccccc12` [Compound 53, 2-(methylamino)ethyl 6-(aminomethyl)-1-{[3-(phenylmethanesulfon-amido)naphthalen-1-yl]-methyl}-1H-pyrrolo[2,3-b]pyridine-2-carboxylate] stands no more than 100 nM; under `COCCN1CCC[C@H](COC(=O)c2cc3ccc(CN)nc3n2Cc2cc(NS(=O)(=O)Cc3ccsc3)cc3ccccc23)C1` (racemic) [Compound 166, [1-(2-methoxyethyl)-piperidin-3-yl]methyl 6-(aminomethyl)-1-({3-[(thiophen-3-yl)methane-sulfonamido]naphthalen-1-yl}methyl)-1H-pyr-rolo[2,3-b]pyridine-2-carboxylate], no more than 100 nM.

The test is the same for the next values; noted with them: Table A; Ki of Matriptase-2 given as class symbols; read-out: Mat-2 Ki.
`C[C@H]1CN(C(=O)Nc2cc(Cn3c(C(=O)O)cc4ccc(CN)nc43)c3ccccc3c2)CCN1` [Compound 305]: the Ki was 500 to 3000 nM. Turning to `Cn1ccnc1COC(=O)c1cc2ccc(CN)cc2n1Cc1cc(NS(=O)(=O)Cc2ccccc2)cc2ccccc12` [Compound 383, (1-methyl-1H-imidazol-2-yl)methyl 6-(amino-methyl)-1-{[3-(phenyl-methanesulfonamido)-naphthalen-1-yl]meth-yl}-1H-indole-2-carbox-ylate], the inhibitory constant (Ki) was no more than 100 nM. With `Cc1oc(=O)oc1COC(=O)NCc1ccc2cc(C(=O)O)n(Cc3cc(NS(=O)(=O)Cc4ccccc4)cc4ccccc34)c2n1` [Compound 359, 6-(((((5-methyl-2-oxo-1,3-dioxol-4-yl)methoxy)carbonyl)amino)methyl)-1-((3-((phenylmethyl)sulfonamido)naphthalen-1-yl)methyl)-1H-pyrrolo[2,3-b]pyridine-2-carboxylic acid], the Ki was 100 to 500 nM.

The same test, now with this note: Table B; Human Recombinant Matriptase 2, 3.5 nM enzyme, 62 μM substrate, 30 mins preincubation; read-out: Mean Ki.
As to `CN1CCC(COC(=O)c2cc3ccc(CN)nc3n2Cc2cc(NS(=O)(=O)CC3CC3)cc3ccccc23)CC1` [Compound 2.28], the Ki is 100 to 500 nM.
